Measured values taken from patent US11992489B2, “Substituted tetrahydroquinoline compounds as indoleamine 2,3-dioxygenase inhibitors” (Merck Sharp & Dohme LLC, priority 2018, dated 2024).

Columns and labels:
[1] = target: T1, IDO1 (Homo sapiens, UniProt P14902); assay: IDO1 human whole blood assay; assay type: cell-based; design: Human whole blood was drawn in sodium heparin coated tubes from healthy internal donors; from tissue; host or cells: human whole blood from healthy donors, stimulated with LPS/IFNγ; conditions: stimulant 100 ng/mL final, 18 h, kynurenine by LC/MS/MS, read-out: Human Whole Blood Potency, IC50
Method: IDO1 Human Whole Blood Assay
Compounds to be tested were serially diluted in ten 3-fold steps in DMSO starting from 10 mM. 3 μL of compound dilutions or DMSO alone were then dispensed from the dilution plate into a polypropylene 96-well assay plate containing 97 μL of RPMI medium using an Echo 555 acoustic liquid handler (Labcyte). Lipopolysaccharide (LPS) induced IFNγ was prepared in RPMI medium to a 10× of final conc. (1000 ng/mL), final concentration is 100 ng/mL.
Human whole blood was drawn in sodium heparin coated tubes from healthy internal donors. 240 μL of blood was transferred to each of the wells of a v-bottom 96 well plate. 30 μL of compound was transferred from intermediate dilution plate, and incubated for 15 min. 30 μL from stimulants was then transferred to blood and mixed thoroughly. Plate was covered with breathable membrane and incubated at 37° C. for overnight (18 h).
On day 2, isotope labeled standard solutions of kunurenine and tryptophan was made in water at 10× concentration and 30 μL was added to the blood at 3 μM final concentration. The assay plates were centrifuged at 300×G for 10 min with no brake to separate plasma from red blood cells. 60 μL of plasma samples was removed without disturbing red blood cells. Plasma was diluted with RPMI in 1:1 ratio and proteins were precipitated out with two volumes of Acetonitrile. The plates were centrifuged at 4000×G for 60 min. 20 μL of supernatant was carefully transferred to a 384 well plate containing 40 μL of 0.1% formic acid in water and analyzed by LC/MS/MS.
LC/MS/MS analyses were performed using Thermo Fisher's LX4-TSQ Quantum Ultra system. This system consists of four Agilent binary high-performance liquid chromatography (HPLC) pumps and a TSQ Quantum Ultra triple quadrupole MS/MS instrument. For each sample, 5 μL were injected onto an Atlantis T3 column (2.1 mm×150 mm, 3 μm particle size) from Waters. The mobile phase gradient pumped at 0.8 mL/min was used to elute the analytes from the column at 25° C. […] Compounds were titrated and IC50's were calculated by 4 parameter sigmoidal curve fitting formula.

[2] = target: T1, IDO1; assay: IDO1 cellular assay in HeLa cells stimulated with IFNγ; assay type: cell-based; conditions: IFNγ 100 ng/mL, 300 uM L-tryptophan, about 48 hours, fluorescence readout, read-out: HeLa Cell Potency, IC50
Method: Biological Assays IDO1 Cellular Assay in HeLa Cells Stimulated with IFNγ
HeLa cells were cultured in complete HeLa culture medium (90% EMEM, 10% heat-inactivated fetal bovine serum) and expanded to about 1×10^9 cells. The cells were then collected and frozen down at 1×10^7 cells/vial in 1 mL frozen medium (90% complete HeLa culture medium, 10% DMSO).
Compounds to be tested were serially diluted in ten 3-fold steps in DMSO starting from 10 mM DMSO stocks in Echo low volume plate(s). Compound dilutions or DMSO alone were then dispensed from the dilution plate(s) into Greiner black 384-well assay plate(s) (catalog #781086, 50 nL/well) using an Echo 550 acoustic liquid handler (Labcyte).
Frozen HeLa cells were thawed and transferred into HeLa assay medium (99% complete HeLa culture medium, 1% Pen/Strep) with 20 mL medium/vial of cells. The cells were spun down at 250 g in a table top centrifuge for 5 min and suspended in same volume of HeLa assay medium. The cells were then counted and adjusted to a density of 2×10^5 cells/mL in HeLa assay medium. Sterile L-tryptophan were added to the cells with final concentration of 300 uM L-tryptophan. A small aliquot (2 mL/plate) of HeLa cells were set aside and were not treated with IFNγ, to serve as the Max-E control.
HeLa cells with and without IFNγ were dispensed to the respective wells of 384-well assay plates containing the compounds. The plates were incubated for about 48 hours at a 37° C., 5% CO2 incubator. Afterwards, 12 μL of 0.5 M methyl isonipecotate in dimethyl sulfoxide were added into each well and the plates were sealed and incubated at 37° C. without CO2 overnight. The plates were centrifuged for 1 min at 200×g. The resulting fluorescence was measured in a Spectramax plate reader (Molecular Devices) with a 400 nm excitation filter and a 510 nm emission filter.
The fluorescence intensity of each well was corrected for the background observed in wells with non-IFNγ-treated cells and was expressed as a fraction of the intensity observed in wells of IFNγ-treated cells and DMSO only. Potencies were calculated by linear least squares fit to the four parameter logistic IC50 equation.

T1 sequence (P14902 whole entry): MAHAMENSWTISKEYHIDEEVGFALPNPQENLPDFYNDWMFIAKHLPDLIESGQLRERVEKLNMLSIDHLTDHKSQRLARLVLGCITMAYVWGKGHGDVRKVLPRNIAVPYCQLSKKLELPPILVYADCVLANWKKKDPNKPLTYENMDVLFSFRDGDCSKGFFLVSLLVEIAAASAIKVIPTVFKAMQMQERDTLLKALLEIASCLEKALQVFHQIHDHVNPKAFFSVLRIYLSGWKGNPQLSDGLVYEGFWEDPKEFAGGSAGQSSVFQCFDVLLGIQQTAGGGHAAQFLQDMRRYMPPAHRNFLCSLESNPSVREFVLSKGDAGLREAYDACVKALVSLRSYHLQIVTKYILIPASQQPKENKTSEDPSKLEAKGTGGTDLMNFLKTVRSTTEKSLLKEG

Row | IC50 [1] [nM] | IC50 [2] [nM] | Structure (SMILES)
1 | 864 | 2.98 | O=C(NC1(c2ccc3c(n2)CCC[C@H]3Oc2cccc(Cl)c2)CC1)c1ccc(F)cc1 (single isomer, unassigned) [Example 2]
2 | > 1000 | 6.99 | O=C(NC1(c2ccc3c(n2)CCC[C@@H]3Oc2cccc(Cl)c2)CC1)c1ccc(F)cc1 (single isomer, unassigned) [Example 3]
3 | 601 | 2.68 | O=C(NC1(c2ccc3c(n2)CCCC3Oc2cccc(Cl)c2)CC1)c1ccc(F)cc1 (stereo not drawn) [Example 1, N-(1-(5-(3-chlorophenoxy)-5,6,7,8-tetrahydroquinolin-2-yl)cyclopropyl)-4-fluorobenzamide]
